Columns and labels:
Assay type in all cases: in vivo
[1] = test system: umbrella sedge (Cyperus difformis); test: Test B flooded paddy test; settings: for Plant response rating, Flood, Sedge, Umbrella: 250 g ai/ha, flooded paddy test, visual rating on 0 to 100 scale (0 no effect, 100 complete control) after 13 to 15 days; for Plant response rating, Sedge, Umbrella: Flood (flooded paddy test), 13 to 15 days; for Sedge, Umbrella plant response rating: Flood, 31 g ai/ha, scale 0 to 100 (0 no effect, 100 complete control)
Summary of the method: (§1)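 Each compound is added to standing floodwater (3 cm above soil, maintained) in pots of 2-leaf-stage plants; greenhouse exposure lasts 13–15 d before visual comparison with controls on a 0–100 control scale.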

rice (Oryza sativa) = test: Test B flooded paddy test; settings: for Plant response rating, Flood, Rice: 250 g ai/ha, flooded paddy test, visual rating on 0 to 100 scale (0 no effect, 100 complete control) after 13 to 15 days; for Plant response rating, Rice: Flood (flooded paddy test), 13 to 15 days; for Rice plant response rating: Flood, 31 g ai/ha, scale 0 to 100 (0 no effect, 100 complete control)
Summary of the method: as §1

[2] = test system: barnyardgrass (Echinochloa crus-galli); test: Test B flooded paddy test; settings: for Plant response rating, Flood, Barnyardgrass: 250 g ai/ha, flooded paddy test, visual rating on 0 to 100 scale (0 no effect, 100 complete control) after 13 to 15 days; for Plant response rating, Barnyardgrass: Flood (flooded paddy test), 13 to 15 days; for Barnyardgrass plant response rating: Flood, 31 g ai/ha, scale 0 to 100 (0 no effect, 100 complete control)
Summary of the method: as §1

[3] = test system: ducksalad (Heteranthera limosa); test: Test B flooded paddy test; settings: for Plant response rating, Flood, Ducksalad: 250 g ai/ha, flooded paddy test, visual rating on 0 to 100 scale (0 no effect, 100 complete control) after 13 to 15 days; for Plant response rating, Ducksalad: Flood (flooded paddy test), 13 to 15 days; for Ducksalad plant response rating: Flood, 31 g ai/ha, scale 0 to 100 (0 no effect, 100 complete control)
Summary of the method: as §1

[4] = test system: chickweed (Stellaria media); test: Test B postemergence plant response; settings: for Chickweed plant response rating (0 to 100 scale): 62 g ai/ha, 0 is no effect
Summary of the method: (§2)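 Plants grown in peat/vermiculite medium were sprayed postemergence at 2–18 cm height (1- to 4-leaf stage). After 13–15 days in the greenhouse, response was rated visually against untreated controls on a 0–100 scale (0 no effect, 100 complete control).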

[5] = test system: windgrass (Apera spica-venti); test: Test B postemergence plant response; settings: for Windgrass plant response rating (0 to 100 scale): 62 g ai/ha, postemergence, 0 is no effect, 100 is complete control; for Plant response rating, Windgrass: Postemergence
Summary of the method: as §2

[6] = test system: canarygrass (Phalaris minor); test: Test B postemergence plant response; settings: for Canarygrass plant response rating (0 to 100 scale): 62 g ai/ha, 0 is no effect
Summary of the method: as §2

[7] = test system: winter barley (Hordeum vulgare); test: Test B postemergence plant response; settings: for Barley plant response rating (0 to 100 scale): 62 g ai/ha, 0 is no effect
Summary of the method: as §2

[8] = test system: ragweed (common ragweed, Ambrosia elatior); test: Test B pre-/postemergence plant response; settings: for Ragweed plant response rating (0 to 100 scale): 62 g ai/ha, postemergence, 0 is no effect, 100 is complete control; for Plant response rating, Ragweed: Postemergence
Summary of the method: (§3)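 Each species received compound formulated in non-phytotoxic solvent with surfactant, either at planting into a loam and sand blend or as a foliar spray once plants reached 2 to 18 cm in peat-based medium. Plants stayed in the greenhouse 13 to 15 days before visual evaluation against controls, scored 0 (no effect) to 100 (complete control).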

[9] = test system: Italian ryegrass (Lolium multiflorum); test: Test B pre-/postemergence plant response; settings: for Ryegrass, Italian plant response rating (0 to 100 scale): 62 g ai/ha, postemergence, 0 is no effect, 100 is complete control; for Plant response rating, Ryegrass, Italian: Postemergence
Summary of the method: as §3

[10] = test system: giant foxtail (Setaria faberii); test: Test B pre-/postemergence plant response; settings: for Foxtail, Giant plant response rating (0 to 100 scale): 62 g ai/ha, 0 is no effect
Summary of the method: as §3

[11] = 62 g ai/ha, scale of 0 to 100 where 0 is no effect and 100 is complete control
[12] = 125 g ai/ha, scale 0 to 100, 0 is no effect, 100 is complete control
[13] = postemergence, 100 is complete control, 13 to 15 days
[14] = Postemergence, 31 g ai/ha, 0 to 100 scale (0 no effect, 100 complete control)
[15] = Postemergence, 125 g ai/ha, scale 0 to 100 (0 no effect, 100 complete control)
[16] = Postemergence, 250 g ai/ha, scale 0 to 100 (0 no effect, 100 complete control), 13 to 15 days
[17] = 31 g ai/ha, 0 to 100 scale (0 no effect, 100 complete control)
[18] = 125 g ai/ha, scale 0 to 100 (0 no effect, 100 complete control)
[19] = 250 g ai/ha, scale 0 to 100 (0 no effect, 100 complete control), 13 to 15 days
[20] = 31 g ai/ha, postemergence, scale 0 to 100, 0 is no effect, 100 is complete control
[21] = Postemergence, 250 g ai/ha, scale 0 to 100 (0 no effect, 100 complete control)
[22] = 250 g ai/ha, scale 0 to 100 (0 no effect, 100 complete control)

CCCn1c(-c2cccc(F)c2)ncc(C(=O)C2=C(O)CCCC2=O)c1=O [Compound 127]
Plant response rating, Flood, Sedge, Umbrella [1]: 80
Plant response rating, Sedge, Umbrella [1, 11]: 20
Plant response rating, Sedge, Umbrella [1, 12]: 60
Sedge, Umbrella plant response rating [1]: 0
Plant response rating, Flood, Rice (rice (Oryza sativa)): 35
Plant response rating, Rice (rice (Oryza sativa); [11]): 15
Plant response rating, Rice (rice (Oryza sativa); [12]): 25
Rice plant response rating (rice (Oryza sativa)): 0
Plant response rating, Flood, Barnyardgrass [2]: 75
Plant response rating, Barnyardgrass [2, 11]: 40
Plant response rating, Barnyardgrass [2, 12]: 65
Barnyardgrass plant response rating [2]: 0
Plant response rating, Flood, Ducksalad [3]: 80
Plant response rating, Ducksalad [3, 11]: 30
Plant response rating, Ducksalad [3, 12]: 60
Ducksalad plant response rating [3]: 0
Chickweed plant response rating (0 to 100 scale) [4, 13]: 75
Plant response rating, Chickweed [4, 14]: 65
Plant response rating, Chickweed [4, 15]: 98
Plant response rating, Chickweed [4, 16]: 98
Windgrass plant response rating (0 to 100 scale) ([5]; 13 to 15 days): 50
Plant response rating, Windgrass [5, 17]: 25
Plant response rating, Windgrass [5, 18]: 55
Plant response rating, Windgrass [5, 19]: 70
Canarygrass plant response rating (0 to 100 scale) [6, 13]: 10
Plant response rating, Canarygrass [6, 14]: 5
Plant response rating, Canarygrass [6, 15]: 35
Plant response rating, Canarygrass [6, 16]: 60
Barley plant response rating (0 to 100 scale) [7, 13]: 20
Plant response rating, Barley [7, 14]: 0
Plant response rating, Barley [7, 15]: 35
Plant response rating, Barley [7, 16]: 60
Ragweed plant response rating (0 to 100 scale) ([8]; 13 to 15 days): 85
Plant response rating, Ragweed [8, 17]: 70
Plant response rating, Ragweed [8, 18]: 98
Plant response rating, Ragweed [8, 19]: 98
Ryegrass, Italian plant response rating (0 to 100 scale) ([9]; 13 to 15 days): 5
Plant response rating, Ryegrass, Italian [9, 17]: 0
Plant response rating, Ryegrass, Italian [9, 18]: 5
Plant response rating, Ryegrass, Italian [9, 19]: 30
Foxtail, Giant plant response rating (0 to 100 scale) [10, 13]: 85
Plant response rating, Foxtail, Giant [10, 14]: 80
Plant response rating, Foxtail, Giant [10, 15]: 85
Plant response rating, Foxtail, Giant [10, 16]: 90

O=C1CCCC(O)=C1C(=O)c1cnc(-c2cccs2)n(CC2CCCO2)c1=O (stereo not drawn) [Compound 109]
Plant response rating, Flood, Sedge, Umbrella [1]: 80
Plant response rating, Sedge, Umbrella [1, 11]: 60
Plant response rating, Sedge, Umbrella [1, 12]: 75
Sedge, Umbrella plant response rating [1]: 50
Plant response rating, Flood, Rice (rice (Oryza sativa)): 25
Plant response rating, Rice (rice (Oryza sativa); [11]): 0
Plant response rating, Rice (rice (Oryza sativa); [12]): 20
Rice plant response rating (rice (Oryza sativa)): 0
Plant response rating, Flood, Barnyardgrass [2]: 20
Plant response rating, Barnyardgrass [2, 11]: 0
Plant response rating, Barnyardgrass [2, 12]: 20
Barnyardgrass plant response rating [2]: 0
Plant response rating, Flood, Ducksalad [3]: 100
Plant response rating, Ducksalad [3, 11]: 60
Plant response rating, Ducksalad [3, 12]: 65
Ducksalad plant response rating [3]: 50
Plant response rating, Chickweed [4, 20]: 90
Chickweed plant response rating (0 to 100 scale) [4, 13]: 98
Plant response rating, Chickweed [4, 15]: 98
Plant response rating, Chickweed [4, 21]: 100
Windgrass plant response rating (0 to 100 scale) ([5]; 13 to 15 days): 40
Plant response rating, Windgrass [5, 18]: 60
Plant response rating, Canarygrass [6, 20]: 0
Canarygrass plant response rating (0 to 100 scale) [6, 13]: 0
Plant response rating, Canarygrass [6, 15]: 30
Plant response rating, Canarygrass [6, 21]: 45
Plant response rating, Barley [7, 20]: 0
Barley plant response rating (0 to 100 scale) [7, 13]: 0
Plant response rating, Barley [7, 15]: 5
Plant response rating, Barley [7, 21]: 5
Ragweed plant response rating (0 to 100 scale) ([8]; 13 to 15 days): 95
Plant response rating, Ragweed [8, 18]: 95
Plant response rating, Ragweed [8, 22]: 98
Ryegrass, Italian plant response rating (0 to 100 scale) ([9]; 13 to 15 days): 0
Plant response rating, Ryegrass, Italian [9, 18]: 5
Plant response rating, Ryegrass, Italian [9, 22]: 40
Plant response rating, Foxtail, Giant [10, 20]: 70
Foxtail, Giant plant response rating (0 to 100 scale) [10, 13]: 75
Plant response rating, Foxtail, Giant [10, 15]: 80
Plant response rating, Foxtail, Giant [10, 21]: 90
